The term IC50 denotes the concentration that gives 50% inhibition. A lower IC50 goes with greater potency in that assay. Broadly, the MIC50 is an inhibitory concentration at the 50% level, which refers to growth in some studies and to a panel of isolates in others.

In series [1] the target is T1, ColQ1-CU (Bacillus cereus, UniProt B9J3S4). The series is classed as binding, B. cereus. The note with it: intact protein HPLC-MS, overnight treatment.
For series [2], the target named is ColG-CU (Hathewaya histolytica, UniProt Q9X721). The format is biochemical, C. histolyticum. The note with it: rapid dilution.
Sequence of ColG-CU (Q9X721 111-786): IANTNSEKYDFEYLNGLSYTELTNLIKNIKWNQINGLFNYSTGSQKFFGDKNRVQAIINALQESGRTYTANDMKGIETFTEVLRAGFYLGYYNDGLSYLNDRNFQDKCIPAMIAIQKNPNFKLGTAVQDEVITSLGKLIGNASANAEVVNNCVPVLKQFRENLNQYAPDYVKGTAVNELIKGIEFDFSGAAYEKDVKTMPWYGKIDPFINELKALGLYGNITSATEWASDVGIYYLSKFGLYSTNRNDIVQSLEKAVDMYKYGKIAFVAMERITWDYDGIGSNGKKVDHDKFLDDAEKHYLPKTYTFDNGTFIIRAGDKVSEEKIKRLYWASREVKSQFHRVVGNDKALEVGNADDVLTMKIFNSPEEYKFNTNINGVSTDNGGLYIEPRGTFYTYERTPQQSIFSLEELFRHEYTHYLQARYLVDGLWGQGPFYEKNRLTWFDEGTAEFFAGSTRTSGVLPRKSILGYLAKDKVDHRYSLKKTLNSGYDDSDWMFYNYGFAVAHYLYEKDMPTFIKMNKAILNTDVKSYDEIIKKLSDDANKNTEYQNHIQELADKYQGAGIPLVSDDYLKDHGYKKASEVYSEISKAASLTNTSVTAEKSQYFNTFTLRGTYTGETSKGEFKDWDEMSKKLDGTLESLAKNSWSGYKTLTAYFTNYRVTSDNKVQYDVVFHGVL
In series [3] the test system is NHDF cells infected with B. cereus. In words: NHDF infection model, LDH release. The following applies: 5 h. The format is cell-based, human. As for the experimental part:
We further evaluated the effect of the diphosphonate and hydroxamate compounds on cell morphology, the fibrillar collagen content of the ECM, and cell viability in the infection model. […] Above a concentration of 25 μM, they were both able to sustain the cells during infection. The cells stayed attached and maintained their spindle shape (Figures S7 and S8), and above 50 μM, we observed a significant reduction in LDH release, indicating higher cell viability.
NHDF cells (1 × 10^5, Promo Cell C-12302) per well were seeded in 24-well plates (Greiner) with DMEM medium (Gibco) containing 10% (v/v) fetal calf serum (FCS, Gibco) and 1% (v/v) glutamine (Gibco). Prior to the treatment, the cells were cultured at 37 °C for 24 h with 5% CO2. In brain heart infusion (BHI) medium, B. cereus AH187 bacteria were cultivated to a mid-exponential phase. The culture was centrifuged at 4000g for 7 min at RT before being rinsed and diluted in PBS. […] The cell morphology was monitored with a light microscope (Olympus) using a 20X objective. […]
The manufacturer’s procedure was followed to measure the released LDH amount in the supernatant of NHDF cells. […] The absorbance was measured at 490 nm with a Tecan Infinite M200 plate reader (Tecan, Grödig, Austria). The cytotoxicity was calculated relative to the control (no inhibitor).
For orientation: LDH in the medium is a marker of cell lysis.

Series [4] addresses T1, ColQ1-CU. The series is classed as biochemical, B. cereus.
Series [5] is described as follows: in vitro. The following applies: human, NHDF cells (normal human dermal fibroblasts).
The target in series [6] is ColA-CU (Bacillus cereus, UniProt Q81BJ6). The series is classed as biochemical, B. cereus. The following applies: rapid dilution.
Sequence of ColA-CU (Q81BJ6 93-764): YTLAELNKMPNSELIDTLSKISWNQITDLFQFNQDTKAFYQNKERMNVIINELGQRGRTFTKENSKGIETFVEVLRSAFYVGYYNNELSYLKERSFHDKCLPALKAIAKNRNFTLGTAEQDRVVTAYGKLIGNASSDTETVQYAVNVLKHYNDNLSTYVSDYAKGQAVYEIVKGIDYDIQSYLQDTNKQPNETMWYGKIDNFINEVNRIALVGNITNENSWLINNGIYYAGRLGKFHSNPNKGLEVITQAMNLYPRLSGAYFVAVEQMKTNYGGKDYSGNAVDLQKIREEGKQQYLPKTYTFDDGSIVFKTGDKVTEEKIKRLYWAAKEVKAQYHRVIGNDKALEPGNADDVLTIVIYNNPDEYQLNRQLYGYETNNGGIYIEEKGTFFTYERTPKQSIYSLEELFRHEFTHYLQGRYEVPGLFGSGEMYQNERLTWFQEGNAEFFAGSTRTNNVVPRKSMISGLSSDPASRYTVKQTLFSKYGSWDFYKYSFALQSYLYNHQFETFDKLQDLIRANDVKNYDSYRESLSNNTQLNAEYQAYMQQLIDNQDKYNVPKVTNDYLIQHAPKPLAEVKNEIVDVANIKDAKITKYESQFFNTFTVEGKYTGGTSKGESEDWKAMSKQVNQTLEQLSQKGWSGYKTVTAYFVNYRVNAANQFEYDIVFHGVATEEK
The test system of series [7] is MDCK II cells infected with B. cereus AH187. The format is cell-based, canine.
Series [8] concerns the target ColQ1-FL (Bacillus cereus, UniProt B9J3S4). The format is biochemical. The following applies: SDS-PAGE.
Series [9] relates to B. cereus AH187. In words: B. cereus growth inhibition assay. The format is cell-based. The note with it: Bacillus cereus, AH187; BHI medium, 37 °C, 48 h, 200–3 μM; read-out: MIC50 (µM) AH187.
Series [10] concerns the target ColH-PD (Hathewaya histolytica, UniProt Q46085). The series is classed as biochemical, C. histolyticum.
Series [11] deals with Galleria mellonella larvae. In words: Galleria mellonella larvae treated with compound only in PBS. The format is in vivo. The note with it: no bacteria. As for the experimental part: Figure 8 Survival analysis of Galleria mellonella larvae treated with Bacillus cereus AH187 with and without 14 and tiludronate disodium. Each curve represents results of three independent experiments; the statistical difference between groups treated with 100, 50, and 25 μM of compound 14 and B. cereus AH187 and with the group treated only with B. cereus AH187 is p < 0.0001, p = 0.0039, and p = 0.0173, respectively. The statistical difference between groups treated with 100 μM tiludronate disodium and with B. cereus AH187 is p = 0.0032 (log-rank test). The survival rate for the larvae treated with compound 14 and tiludronate disodium in PBS was 100%.
G. mellonella larvae were purchased from a fishing store. Injections were carried out using an LA120 syringe pump (Landgraf Laborsysteme, Langenhagen, Germany) equipped with 1 mL Injekt-F tuberculin syringes (B. Braun, Melsungen, Germany) and Sterican 0.30 × […], 30 G × 1.5 needles (B. Braun). The larvae were divided into five groups depending on their treatment: (i) sterile PBS, (ii) no injection, (iii) only compound, (iv) BC AH187 bacterial suspension, and (v) BC AH187 bacterial suspension with compound. Larvae were incubated at 37 °C for 3 days and inspected twice daily. The total larvae used in all three experiments were 40 larvae per group.

In brackets after ≈: the same amount, converted by molar mass. Entries after “also recorded” stand apart in the source; their conditions may differ. Bounds are passed on as bounds.

T1 sequence (B9J3S4 94-765 limits assumed): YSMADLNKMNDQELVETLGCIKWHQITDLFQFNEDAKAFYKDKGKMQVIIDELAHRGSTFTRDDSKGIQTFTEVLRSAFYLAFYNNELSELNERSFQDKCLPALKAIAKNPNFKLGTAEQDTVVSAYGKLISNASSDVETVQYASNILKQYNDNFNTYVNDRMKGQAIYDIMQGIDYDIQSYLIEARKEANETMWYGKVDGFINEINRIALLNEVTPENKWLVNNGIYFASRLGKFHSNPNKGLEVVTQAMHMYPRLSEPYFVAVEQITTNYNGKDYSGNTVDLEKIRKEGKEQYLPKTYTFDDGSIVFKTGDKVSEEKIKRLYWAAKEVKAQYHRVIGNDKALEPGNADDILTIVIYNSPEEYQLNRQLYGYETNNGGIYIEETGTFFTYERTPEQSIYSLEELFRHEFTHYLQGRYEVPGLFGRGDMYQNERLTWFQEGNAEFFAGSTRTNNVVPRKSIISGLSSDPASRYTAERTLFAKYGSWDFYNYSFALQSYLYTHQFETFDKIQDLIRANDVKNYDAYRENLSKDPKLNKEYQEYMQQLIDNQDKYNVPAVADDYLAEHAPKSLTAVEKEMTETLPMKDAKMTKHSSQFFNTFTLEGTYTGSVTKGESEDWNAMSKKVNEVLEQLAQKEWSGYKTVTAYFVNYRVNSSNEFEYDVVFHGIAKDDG
Sequence of ColQ1-FL (B9J3S4 94-965 limits assumed): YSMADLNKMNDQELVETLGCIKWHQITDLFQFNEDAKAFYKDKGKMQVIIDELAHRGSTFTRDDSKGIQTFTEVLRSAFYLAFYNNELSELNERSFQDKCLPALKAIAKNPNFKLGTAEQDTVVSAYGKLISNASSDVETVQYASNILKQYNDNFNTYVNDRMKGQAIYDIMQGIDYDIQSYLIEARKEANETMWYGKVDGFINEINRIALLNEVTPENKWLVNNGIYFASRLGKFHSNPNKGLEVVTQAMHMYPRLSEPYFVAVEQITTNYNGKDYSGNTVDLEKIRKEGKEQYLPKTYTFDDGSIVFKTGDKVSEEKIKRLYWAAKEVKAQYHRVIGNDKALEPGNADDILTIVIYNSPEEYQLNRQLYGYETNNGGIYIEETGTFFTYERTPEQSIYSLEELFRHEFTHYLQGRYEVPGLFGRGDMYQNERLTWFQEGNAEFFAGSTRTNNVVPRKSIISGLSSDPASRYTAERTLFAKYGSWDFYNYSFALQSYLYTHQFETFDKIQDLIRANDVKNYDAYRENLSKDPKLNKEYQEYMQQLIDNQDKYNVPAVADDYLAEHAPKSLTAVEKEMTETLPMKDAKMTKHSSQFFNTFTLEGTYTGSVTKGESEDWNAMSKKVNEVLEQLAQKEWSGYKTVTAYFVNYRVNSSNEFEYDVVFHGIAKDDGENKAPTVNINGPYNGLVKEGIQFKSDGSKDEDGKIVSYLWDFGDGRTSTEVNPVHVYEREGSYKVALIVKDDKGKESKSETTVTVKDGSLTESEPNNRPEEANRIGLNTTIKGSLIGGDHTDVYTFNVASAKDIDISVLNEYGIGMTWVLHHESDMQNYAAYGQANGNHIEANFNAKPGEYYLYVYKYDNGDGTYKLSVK
Sequence of ColH-PD (Q46085 331-721 limits assumed): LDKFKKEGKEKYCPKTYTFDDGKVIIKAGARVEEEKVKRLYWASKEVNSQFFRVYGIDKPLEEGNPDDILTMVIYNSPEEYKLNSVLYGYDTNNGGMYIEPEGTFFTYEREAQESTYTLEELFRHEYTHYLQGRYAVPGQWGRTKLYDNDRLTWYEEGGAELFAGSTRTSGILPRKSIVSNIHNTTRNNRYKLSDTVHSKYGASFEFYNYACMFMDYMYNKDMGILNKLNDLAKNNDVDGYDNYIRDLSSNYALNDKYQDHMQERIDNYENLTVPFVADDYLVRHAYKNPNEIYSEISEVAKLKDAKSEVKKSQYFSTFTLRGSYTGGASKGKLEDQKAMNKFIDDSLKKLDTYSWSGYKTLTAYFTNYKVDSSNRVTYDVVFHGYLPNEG

`O=P(O)(O)c1nc2cc(Cl)c(Cl)cc2nc1P(=O)(O)O` [Compound 13, (6,7-Dichloroquinoxaline-2,3-diyl)bis(phosphonic acid)]: the “Covalent modification of ColQ1-CU” value in [1] was “No molecular masses displayed a mass shift indicating a covalently bound inhibitor; also recorded: did not result in a covalent modification”. The “Reversibility of inhibition, ColG” value in series [2] is on record as “rapidly reversible inhibitors”. Besides, the “Concentration above which LDH release was significantly reduced” value in series [3] is reported as “above 50 μM”. In addition, the “Residual activity after rapid dilution” value in [4] (30 min preincubation at 10-fold IC50, 100-fold dilution) is on record as “less than 9%”. Also, the “Reversibility of inhibition, ColQ1-CU” value in [4] (rapid dilution) is recorded as “very slowly dissociating reversible binder”. The same compound showed an IC50 in [5] greater than 200 µM. Moreover, the “Reversibility of inhibition, ColA-CU” value in series [6] is given as “only a minimal inhibition”. Further, the “TEER of infected MDCK II cells” value in [7] is “failed to sustain the TEER of the infected cells”. Besides, the “Concentration above which Col I chains were maintained” value in series [8] (1 mg/mL Col I, 50 ng ColQ1-FL) is on record as “above 3 μM”. Moreover, the MIC50 in [9] stood at 200 µM (≈ 71.8 µg/mL). For the same compound, in [10], the “Reversibility of inhibition, ColH” value was “reversed compared to ColA”.
As for `O=C(Nc1ccc(Cl)c(Cl)c1)c1ccc2nc(P(=O)(O)O)c(P(=O)(O)O)nc2c1` [Compound 14, (6-((3,4-Dichlorophenyl)carbamoyl)quinoxaline-2,3-diyl)bis(phosphonic acid)], in series [3], the “Concentration above which LDH release was significantly reduced” value is given as “above 50 μM”. In addition, in series [11], the “Survival rate of larvae treated with compound in PBS” value amounted to 100%. In series [5], the half-inhibitory concentration (IC50) is greater than 100 µM. The “TEER of infected MDCK II cells” value in series [7] is listed as “preserve the TEER value”. Further, in series [8] (12.5–1.5 μM tested), the “Protection of Col I chains from cleavage by ColQ1-FL” value is “inhibited the collagenase activity at all concentrations tested”. Besides, the MIC50 in [9] was determined as 100 µM (≈ 47.8 µg/mL).

The record behind these values is paper PMC9574867, “Discovery and Characterization of Synthesized and FDA-Approved Inhibitors of Clostridial and Bacillary Collagenases” (Journal of Medicinal Chemistry, 2022).
